Reference: ChEMBL document CHEMBL1201862, “PubChem BioAssay data set” (2004)
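Briefly, cells in 96-well plates were exposed to five compound concentrations for 48 h, and endpoints were estimated by linear interpolation. GI50 = concentration required for 50% inhibition of growth.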 Active and inactive are the calls of the source. Cut-off read from the data, not from the text of the source: active = GI50 up to about 1.1 µM and inactive = higher.

Assays:
Test in all cases: NCI anticancer screen, dose series, 48 h
UO-31 = test system: UO-31
SN12C = test system: SN12C
HOP-92 = test system: HOP-92
SW-620 = test system: SW-620
SF-268 = test system: SF-268
PC-3 = test system: PC-3
NCI-H460 = test system: NCI-H460
HOP-62 = test system: HOP-62
OVCAR-3 = test system: OVCAR-3
ACHN = test system: ACHN
RPMI-8226 = test system: RPMI-8226
LOX IMVI = test system: LOX IMVI
HCT-15 = test system: HCT-15
A498 = test system: A498
MOLT-4 = test system: MOLT-4
A549 = test system: A549
Hs-578T = test system: Hs-578T
CAKI-1 = test system: CAKI-1
Malme-3M = test system: Malme-3M
OVCAR-4 = test system: OVCAR-4
CCRF-CEM = test system: CCRF-CEM
SF-295 = test system: SF-295
OVCAR-8 = test system: OVCAR-8
OVCAR-5 = test system: OVCAR-5
NCI-H522 = test system: NCI-H522
786-0 = test system: 786-0
NCI-H23 = test system: NCI-H23
MDA-MB-435 = test system: MDA-MB-435
MDA-MB-231 = test system: MDA-MB-231
IGROV-1 = test system: IGROV-1
UACC-62 = test system: UACC-62
HCT-116 = test system: HCT-116
SR = test system: SR
K562 = test system: K562
MCF7 = test system: MCF7
SK-MEL-5 = test system: SK-MEL-5
NCI/ADR-RES = test system: NCI/ADR-RES
UACC-257 = test system: UACC-257
EKVX = test system: EKVX
BT-549 = test system: BT-549
SK-MEL-2 = test system: SK-MEL-2
M14 = test system: M14
HCC 2998 = test system: HCC 2998
MDA-N = test system: MDA-N
SK-MEL-28 = test system: SK-MEL-28
T47D = test system: T47D
DU-145 = test system: DU-145
NCI-H226 = test system: NCI-H226
U-251 = test system: U-251
RXF 393 = test system: RXF 393
SNB-19 = test system: SNB-19
TK-10 = test system: TK-10
COLO 205 = test system: COLO 205
KM12 = test system: KM12
HT-29 = test system: HT-29
SF-539 = test system: SF-539
SK-OV-3 = test system: SK-OV-3

For `Nc1ncnc2c1cnn2COCC(O)CO` (configuration not stated), the GI50 (UO-31) was > 100 µM (inactive), the GI50 (SN12C) was > 100 µM (inactive) and the GI50 (HOP-92) was > 100 µM (inactive). The GI50 (SW-620) was > 100 µM (inactive), the GI50 (SF-268) was > 100 µM (inactive) and the GI50 (PC-3) was > 100 µM (inactive). The GI50 (NCI-H460) was > 100 µM (inactive), the GI50 (HOP-62) was > 100 µM (inactive) and the GI50 (OVCAR-3) was > 100 µM (inactive). For the same compound, the GI50 (ACHN) was > 100 µM (inactive), the GI50 (RPMI-8226) was > 100 µM (inactive) and the GI50 (LOX IMVI) was > 100 µM (inactive). The GI50 (HCT-15) was over 100 µM, the GI50 (A498) was > 100 µM (inactive) and the GI50 (MOLT-4) was > 100 µM (inactive). For the same compound, the GI50 (A549) was > 100 µM (inactive), the GI50 (Hs-578T) was > 100 µM (inactive) and the GI50 (CAKI-1) was > 100 µM (inactive). The GI50 (Malme-3M) was > 100 µM (inactive), the GI50 (OVCAR-4) was > 100 µM (inactive) and the GI50 (CCRF-CEM) was > 100 µM (inactive). The GI50 (SF-295) was > 100 µM (inactive), the GI50 (OVCAR-8) was > 100 µM (inactive) and the GI50 (OVCAR-5) was > 100 µM (inactive). The GI50 (NCI-H522) was > 100 µM (inactive), the GI50 (786-0) was > 100 µM (inactive) and the GI50 (NCI-H23) was > 100 µM (inactive). The GI50 (MDA-MB-435) was > 100 µM (inactive), the GI50 (MDA-MB-231) was > 100 µM (inactive) and the GI50 (IGROV-1) was > 100 µM (inactive). For the same compound, the GI50 (UACC-62) was > 100 µM (inactive), the GI50 (HCT-116) was > 100 µM (inactive) and the GI50 (SR) was > 100 µM (inactive). For the same compound, the GI50 (K562) was > 100 µM (inactive), the GI50 (MCF7) was > 100 µM (inactive) and the GI50 (SK-MEL-5) was > 100 µM (inactive). The GI50 (NCI/ADR-RES) was > 100 µM (inactive), the GI50 (UACC-257) was > 100 µM (inactive) and the GI50 (EKVX) was > 100 µM (inactive). The GI50 (BT-549) was > 100 µM (inactive), the GI50 (SK-MEL-2) was > 100 µM (inactive) and the GI50 (M14) was > 100 µM (inactive). For the same compound, the GI50 (HCC 2998) was > 100 µM (inactive), the GI50 (MDA-N) was > 100 µM (inactive) and the GI50 (SK-MEL-28) was > 100 µM (inactive). The GI50 (T47D) was > 100 µM (inactive), the GI50 (DU-145) was > 100 µM (inactive) and the GI50 (NCI-H226) was > 100 µM (inactive). For the same compound, the GI50 (U-251) was > 100 µM (inactive), the GI50 (RXF 393) was > 100 µM (inactive) and the GI50 (SNB-19) was > 100 µM (inactive). The GI50 (TK-10) was > 100 µM (inactive), the GI50 (COLO 205) was > 100 µM (inactive) and the GI50 (KM12) was > 100 µM (inactive). The GI50 (HT-29) was > 100 µM (inactive), the GI50 (SF-539) was > 100 µM (inactive) and the GI50 (SK-OV-3) was > 100 µM (inactive).
